For assay [1], the target named is T1, Adenosine receptor A1 (Homo sapiens) (UniProt P30542).
T1 sequence (whole entry): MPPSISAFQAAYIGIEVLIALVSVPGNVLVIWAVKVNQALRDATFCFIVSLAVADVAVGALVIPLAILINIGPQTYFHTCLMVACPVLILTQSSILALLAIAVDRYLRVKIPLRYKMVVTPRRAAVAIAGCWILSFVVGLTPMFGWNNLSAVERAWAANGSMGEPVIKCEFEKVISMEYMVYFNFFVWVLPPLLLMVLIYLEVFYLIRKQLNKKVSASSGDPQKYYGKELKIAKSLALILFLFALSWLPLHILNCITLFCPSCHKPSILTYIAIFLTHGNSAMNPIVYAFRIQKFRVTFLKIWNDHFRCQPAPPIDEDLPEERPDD
As to the kind of experiment: Displacement of [3H]R-PIA from human recombinant adenosine A1 receptor expressed in CHO cells at 10 uM after 60 mins by liquid scintillation counting. It counts as cell-based.

Assay [2] addresses Adenosine receptor A2a (Homo sapiens, UniProt P29274). As to the kind of experiment: Displacement of [3H]CGS21680 from human recombinant adenosine A2A receptor expressed in HEK293 cells at 10 uM after 60 mins by liquid scintillation counting. Format: cell-based. On the technique in general: Loss of bound radioactivity is the signal in a displacement assay; it reports binding, not function.

The target of assay [3] is T2, Adenosine receptor A3 (Homo sapiens) (UniProt P0DMS8).
T2 sequence (whole entry): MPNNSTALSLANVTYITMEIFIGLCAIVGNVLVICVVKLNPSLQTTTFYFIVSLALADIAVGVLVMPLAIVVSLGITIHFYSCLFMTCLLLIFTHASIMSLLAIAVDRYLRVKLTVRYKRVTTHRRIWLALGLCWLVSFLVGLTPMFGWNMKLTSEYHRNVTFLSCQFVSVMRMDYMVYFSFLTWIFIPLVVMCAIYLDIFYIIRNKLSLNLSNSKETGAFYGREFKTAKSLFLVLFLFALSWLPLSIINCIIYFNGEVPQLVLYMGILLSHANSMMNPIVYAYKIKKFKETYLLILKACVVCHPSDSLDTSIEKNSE
Put plainly: Agonist activity at human recombinant adenosine A3 receptor expressed in CHO cells assessed as inhibition of forskolin-stimulated cAMP production at 10 uM incubated for 30 mins prior to forskolin-stimulation measured after 15 mins by enzyme immunoassay relative to NECA. It counts as functional, cell-based.

Assay [4] concerns the target T3, Adenosine receptor A1 (Mus musculus) (UniProt Q60612).
T3 sequence (whole entry): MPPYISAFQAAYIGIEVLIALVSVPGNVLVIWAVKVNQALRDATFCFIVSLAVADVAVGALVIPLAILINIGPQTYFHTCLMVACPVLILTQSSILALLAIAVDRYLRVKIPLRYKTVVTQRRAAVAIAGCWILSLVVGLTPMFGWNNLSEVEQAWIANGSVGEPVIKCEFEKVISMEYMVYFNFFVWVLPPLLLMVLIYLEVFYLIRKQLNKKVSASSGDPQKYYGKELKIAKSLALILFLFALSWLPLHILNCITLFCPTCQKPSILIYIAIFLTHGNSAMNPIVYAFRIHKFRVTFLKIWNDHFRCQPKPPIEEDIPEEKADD
As to the kind of experiment: Displacement of from mouse adenosine A1 receptor expressed in HEK293 cells at 10 uM after 60 mins by liquid scintillation counting. On the set-up: reference not given here.

In assay [5] the target is Adenosine receptor A2a (Mus musculus) (UniProt Q60613). Put plainly: Displacement of [3H]CGS21680 from mouse adenosine A2A receptor expressed in HEK293 cells at 10 uM after 60 mins by liquid scintillation counting.
Chain of Adenosine receptor A2a (Mus musculus) (Q60613 whole entry): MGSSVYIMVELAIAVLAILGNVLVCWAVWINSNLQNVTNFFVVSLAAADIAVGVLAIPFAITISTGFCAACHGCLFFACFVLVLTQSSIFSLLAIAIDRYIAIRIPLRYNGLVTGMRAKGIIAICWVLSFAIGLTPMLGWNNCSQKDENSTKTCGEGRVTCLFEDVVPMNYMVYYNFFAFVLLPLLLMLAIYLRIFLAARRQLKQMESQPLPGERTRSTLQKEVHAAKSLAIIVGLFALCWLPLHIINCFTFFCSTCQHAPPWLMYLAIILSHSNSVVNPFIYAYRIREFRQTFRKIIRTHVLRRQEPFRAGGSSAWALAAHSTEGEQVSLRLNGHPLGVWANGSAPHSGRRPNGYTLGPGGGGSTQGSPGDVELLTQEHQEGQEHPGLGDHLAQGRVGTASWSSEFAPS
Assay [6] deals with T4, Adenosine receptor A2b (Homo sapiens) (UniProt P29275).
T4 sequence (whole entry): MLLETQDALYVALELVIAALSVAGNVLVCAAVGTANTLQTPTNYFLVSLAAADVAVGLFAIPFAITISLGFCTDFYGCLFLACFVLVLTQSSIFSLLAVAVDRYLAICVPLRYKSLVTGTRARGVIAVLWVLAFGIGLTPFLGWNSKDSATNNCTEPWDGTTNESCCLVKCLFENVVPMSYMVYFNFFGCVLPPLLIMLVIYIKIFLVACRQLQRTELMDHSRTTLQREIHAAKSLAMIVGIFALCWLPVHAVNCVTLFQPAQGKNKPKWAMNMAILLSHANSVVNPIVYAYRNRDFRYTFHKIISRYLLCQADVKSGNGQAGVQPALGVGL
As to the kind of experiment: Agonist activity at human adenosine A2B receptor by cAMP accumulation assay relative to NECA. Format: functional. (In general: Cyclic AMP is a second messenger, typically raised through Gs and lowered through Gi signalling.)

A short description of assay [7]: Selectivity ratio of Ki for mouse adenosine A3 receptor to Ki for human recombinant adenosine A3 receptor.
For assay [8], the target named is T5, Adenosine receptor A3 (Mus musculus, UniProt Q61618).
T5 sequence (Q61618 whole entry): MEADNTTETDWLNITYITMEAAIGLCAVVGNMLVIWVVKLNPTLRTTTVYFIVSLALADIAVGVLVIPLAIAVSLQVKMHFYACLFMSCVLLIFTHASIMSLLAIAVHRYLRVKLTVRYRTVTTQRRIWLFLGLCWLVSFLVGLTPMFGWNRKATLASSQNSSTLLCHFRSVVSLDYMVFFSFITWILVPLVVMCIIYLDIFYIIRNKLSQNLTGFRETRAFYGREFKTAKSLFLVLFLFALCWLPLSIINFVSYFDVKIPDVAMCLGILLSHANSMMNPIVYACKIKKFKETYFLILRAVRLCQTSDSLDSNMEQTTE
As to the kind of experiment: Displacement of [125I]I-AB-MECA from mouse adenosine A3 receptor expressed in HEK293 cells after 60 mins by liquid scintillation counting.

Chain of Adenosine receptor A2a (P29274 whole entry): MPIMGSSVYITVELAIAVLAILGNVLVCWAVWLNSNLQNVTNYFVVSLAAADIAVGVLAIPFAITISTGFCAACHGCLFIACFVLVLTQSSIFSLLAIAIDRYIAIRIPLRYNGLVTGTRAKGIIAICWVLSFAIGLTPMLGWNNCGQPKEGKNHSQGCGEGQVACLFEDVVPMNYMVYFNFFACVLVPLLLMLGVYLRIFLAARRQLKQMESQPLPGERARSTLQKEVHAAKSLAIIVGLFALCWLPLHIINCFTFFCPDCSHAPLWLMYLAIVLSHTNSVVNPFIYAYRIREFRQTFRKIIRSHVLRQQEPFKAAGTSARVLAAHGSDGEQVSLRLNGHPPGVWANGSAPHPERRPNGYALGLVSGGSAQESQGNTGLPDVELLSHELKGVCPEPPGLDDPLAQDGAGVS

One may read the inhibition as how much of the control response was suppressed. For the compound `CNC(=O)[C@@]12C[C@@H]1[C@@H](n1cnc3c(NCc4cccc(Cl)c4)nc(C#Cc4ccccc4)nc31)[C@H](O)[C@@H]2O`, the inhibition in assay [1] is 20%; in assay [2], 27%; in assay [4], 50%; in assay [5] it was 2%. For the same compound, the Efficacy in assay [3] stood at 101%.

Take `CNC(=O)[C@@]12C[C@@H]1[C@@H](n1cnc3c(NC)nc(C#Cc4cccc(F)c4)nc31)[C@H](O)[C@@H]2O`: the inhibition in assay [1] was determined as 12%; in assay [2], 10%. In assay [3], the Efficacy was 95.8%.

Consider `CNC(=O)[C@@]12C[C@@H]1[C@@H](n1cnc3c(NCc4cccc(Cl)c4)nc(C#Cc4ccc(F)c(F)c4)nc31)[C@H](O)[C@@H]2O` (single isomer, unassigned), for which the inhibition was determined as 6% in assay [1], 41% in assay [2], 14% in assay [4] and 27% in assay [5]. For the same compound, the Efficacy in assay [6] came to 20%.

Broadly, the Ki is a measure of affinity in units of concentration, obtained from inhibition or displacement. On to `CNC(=O)[C@@]12C[C@@H]1[C@@H](n1cnc3c(NCc4cccc(Cl)c4)nc(C#Cc4ccc(-c5ccccc5)cc4)nc31)[C@H](O)[C@@H]2O`, for which the inhibition in assay [1] was determined as 2%; in assay [2], 0%; in assay [4], 41%; in assay [5], 6%. The Efficacy in assay [3] stood at 89%. Also, the Ratio Ki in assay [7] was 3. Besides, in assay [8], the Ki was found to be 10.8 nM.

As to `CNC(=O)[C@@]12C[C@@H]1[C@@H](n1cnc3c(NC)nc(C#Cc4cccc(Cl)c4)nc31)[C@H](O)[C@@H]2O`, the inhibition in assay [1] was 10%. For the same compound, the Efficacy in assay [3] worked out at 90.9%; in assay [6] it was 20%.

For the compound `CNC(=O)[C@@]12C[C@@H]1[C@@H](n1cnc3c(NCc4cccc(I)c4)ncnc31)[C@H](O)[C@@H]2O`, in assay [3], the Efficacy was 100%.

For the compound `CNC(=O)[C@@]12C[C@@H]1[C@@H](n1cnc3c(NC)nc(C#Cc4cc(F)cc(F)c4)nc31)[C@H](O)[C@@H]2O`, the inhibition was 8% in assay [1] and 47% in assay [2]. The Efficacy in assay [3] was found to be 99.6%.

Take `CNC(=O)[C@@]12C[C@@H]1[C@@H](n1cnc3c(NC)nc(C#Cc4cccc(N)c4)nc31)[C@H](O)[C@@H]2O`: the figures for the inhibition in assay [1] and in assay [2] were 10% and 19%, respectively. Also, the Efficacy in assay [3] is 109%.

Take `CNC(=O)[C@@]12C[C@@H]1[C@@H](n1cnc3c(NCc4cccc(Cl)c4)nc(C#Cc4ccc(F)cc4)nc31)[C@H](O)[C@@H]2O`: the inhibition in assay [1] amounted to 20%; in assay [2], 42%; in assay [4], 65%; in assay [5], 7%. Moreover, the figures for the Efficacy in assay [3] and in assay [6] were 102% and 20%, respectively. Also, the Ki in assay [8] was 2.38 nM.

For `CNC(=O)[C@@]12C[C@@H]1[C@@H](n1cnc3c(NC)nc(C#Cc4ccc(F)c(F)c4)nc31)[C@H](O)[C@@H]2O`, the inhibition in assay [1] and in assay [2] was 6% each time. In addition, the Efficacy in assay [3] was found to be 108%.

As to `CNC(=O)[C@@]12C[C@@H]1[C@@H](n1cnc3c(NC)nc(C#Cc4ccccc4F)nc31)[C@H](O)[C@@H]2O`, the inhibition in assay [1] came to 21%; in assay [2], 17%. The Efficacy in assay [3] was 97.7%.

As for `CNC(=O)[C@@]12C[C@@H]1[C@@H](n1cnc3c(NC)nc(C#Cc4cc5ccccc5c5ccccc45)nc31)[C@H](O)[C@@H]2O`, the values for the inhibition in assay [1] and in assay [2] were 15% and 52%, respectively. Further, the Efficacy in assay [3] is 108%.

For the compound `CNC(=O)[C@@]12C[C@@H]1[C@@H](n1cnc3c(NC)nc(C#Cc4ccccc4)nc31)[C@H](O)[C@@H]2O`, the inhibition in assay [1] turned out to be 13%; in assay [2], 14%.

As to `CNC(=O)[C@@]12C[C@@H]1[C@@H](n1cnc3c(NC)nc(C#Cc4ccccn4)nc31)[C@H](O)[C@@H]2O`, the inhibition in assay [1] stood at 11%; in assay [2], 13%.

For `CNC(=O)[C@@]12C[C@@H]1[C@@H](n1cnc3c(NC)nc(C#Cc4ccc(Br)cc4)nc31)[C@H](O)[C@@H]2O`, the inhibition in assay [1] is 13%; in assay [2] it was 26%. For the same compound, the Efficacy in assay [3] amounted to 97.5%.

As for `CNC(=O)[C@@]12C[C@@H]1[C@@H](n1cnc3c(NCc4cccc(Cl)c4)nc(C#Cc4ccccc4Cl)nc31)[C@H](O)[C@@H]2O`, the inhibition in assay [1] came out at 19%; in assay [2], 52%; in assay [4], 51%; in assay [5], 19%. The Efficacy in assay [3] was 103%. In assay [8], this compound returned a Ki of 2.64 nM.

As to `CNC(=O)[C@@]12C[C@@H]1[C@@H](n1cnc3c(NC)nc(C#Cc4ccc(Cl)cc4)nc31)[C@H](O)[C@@H]2O`, the inhibition in assay [1] was found to be 14%; in assay [2], 30%. For the same compound, in assay [3], the Efficacy turned out to be 97.4%.

Consider `CNC(=O)[C@@]12C[C@@H]1[C@@H](n1cnc3c(NC)nc(C#Cc4ccc(F)cc4)nc31)[C@H](O)[C@@H]2O`, for which the inhibition in assay [1] stood at 21%; in assay [2] it was 19%; in assay [4], 29%; in assay [5], 0%. For the same compound, in assay [3], the Efficacy stood at 80.3%. Also, in assay [7], the Ratio Ki turned out to be 70. The compound further came in with a Ki in assay [8] of 37.7 nM.

In the case of `CNC(=O)[C@@]12C[C@@H]1[C@@H](n1cnc3c(NC)nc(C#Cc4cccc5ccccc45)nc31)[C@H](O)[C@@H]2O`, the inhibition in assay [1] was 25%; in assay [2] it was 34%. The Efficacy in assay [3] was 94.6%.

Take `CCc1ccc(C#Cc2nc(NC)c3ncn([C@H]4[C@H](O)[C@H](O)[C@]5(C(=O)NC)C[C@H]45)c3n2)cc1`: the inhibition in assay [1] is 13%; in assay [2], 38%. Also, the Efficacy in assay [3] stood at 110%.

As to `CNC(=O)[C@@]12C[C@@H]1[C@@H](n1cnc3c(NC)nc(C#Cc4ccc(C(C)(C)C)cc4)nc31)[C@H](O)[C@@H]2O`, the inhibition in assay [1] worked out at 23%; in assay [2], 7%. Also, the Efficacy in assay [3] stood at 78.4%.

As for `CNC(=O)[C@@]12C[C@@H]1[C@@H](n1cnc3c(NC)nc(C#Cc4ccc(-c5ccccc5)cc4)nc31)[C@H](O)[C@@H]2O`, the values for the inhibition in assay [1] and in assay [2] were 21% and 29%, respectively. In addition, in assay [3], the Efficacy was 110%.

For the compound `CNC(=O)[C@@]12C[C@@H]1[C@@H](n1cnc3c(NCc4cccc(Cl)c4)nc(C#Cc4cccc(C(=O)O)c4)nc31)[C@H](O)[C@@H]2O`, the inhibition was found to be 6% in assay [1], 38% in assay [2], 18% in assay [4] and 22% in assay [5]. The Efficacy in assay [3] came out at 86.7%. In assay [8], this compound returned a Ki of 3.66 nM.
